Assay results from patent US10166271B2, “Methods for promoting hair growth” (THE REGENTS OF THE UNIVERSITY OF CALIFORNIA, priority 2006, dated 2019).

Assays:
[1] = test system: CRF-OE mice; format: in vivo; settings: for Treated mice that died / did not survive / Hair growth: adult female CRF-OE mice; for Treated mice that died / did not survive: groups of five, minoxidil: a few days after the first injection, NBI 27914: within four weeks following the final injection; for Hair growth: 2 and 4 weeks (minoxidil) or four weeks (NBI 27914, surviving mouse) after the final injection
From the text: The NBI 27914 administration regimen was as previously described by Martinez et al. (J. Pharmacol. Exp. Ther., 301:611-617, 2002).

[2] = test system: young CRF-OE mice; settings: young CRF-OE mice; over a two-month period
Procedure: Each subcutaneous injection is given in a single puncture located along or about the midline of the back. Age-matched CRF-OE mice similarly injected with 0.1 ml vehicle alone are used as negative controls. Astressin B fragments are as described in Example 8. Alternatively, topical astressin B can be applied to the mouse's back, for example 0.05 mg, 0.5 mg, 5 mg, 50 mg, or 500 mg of an astressin B fragment once daily for at least five consecutive days
Hair growth (or hair loss) is assessed using the hair growth scale described in Example 1. The general conditions of treated and control mice, such as weight, back skin thickness, hair luster, skin wounds and indurations, are noted.

[3] = test system: male patients between 18 and 41 years of age; post-menopausal women; settings: cited from earlier work
[4] = test system: male and female androgenetic patients; settings: cited from earlier work
[5] = oral 1 mg/day for 2 years, male patients 18-41 years

In the case of `CCCN(CC1CC1)c1nc(C)nc(Nc2c(Cl)cc(Cl)cc2Cl)c1Cl` [NBI 27914], the “Treated mice that died / did not survive” value [1] is reported as 4 out of 5, the Hair growth [1] is reported as “small areas of patchy hair growth” and the “Loss of hair compared with astressin B-treated mice” value [2] is reported as “substantially more loss of hair”.

For `CC(C)(C)NC(=O)[C@H]1CC[C@H]2[C@@H]3CC[C@H]4NC(=O)C=C[C@]4(C)[C@H]3CC[C@]12C` [finasteride], the Side effects ([3]; human, in vivo) is listed as “lack of libido, lack of potency, and mild reduction in semen”, the “Cases in which further hair loss was prevented” value [3, 5] is listed as 83% and the “Cases with visible hair growth” value [3, 5] is listed as 66%. The “Efficacy of similar treatment regimen” value ([3]; post-menopausal women) was “ineffective”.

With `Nc1cc(N2CCCCC2)nc(N)[n+]1[O-]` [minoxidil] the “Treated mice that died / did not survive” value [1] was “one treated mouse died”, the Hair growth [1] was “Moderate hair growth in the pigmented patches” and the “Treated mice with induced patches of pigmentation” value ([1]; sc 1% in 0.1 ml once per day x 10 days, by two weeks after the final injection, still-living mice) was 3 of the 4. For the same molecule, the “Loss of hair compared with astressin B-treated mice” value [2] was “substantially more loss of hair”, the Side effects ([4]; human, in vivo) was “scalp irritation and increased facial hair” and the “Patients with fine hair growth (fraction)” value ([4]; two percent topical) was “approximately ⅓”. The “Patients with no hair growth (fraction)” value ([4]; two percent topical) was “approximately ⅓” and the “Patients with visible hair growth (fraction)” value ([4]; two percent topical) was “approximately ⅓”.
